Measurements: US7795294B2, “Tetrahydro-2H-indazole pyrazole cannabinoid modulators” (Janssen Pharmaceutica N.V., priority 2006, dated 2010)
Read-outs that look alike come from different tables or passages of the source.

Tests used:
[1] = biological target: T1, human CB1 receptor (Homo sapiens, UniProt P21554); assay: Binding assay for CB1 agonists or inverse agonists, [3H]-CP-55,940 displacement on membranes of transfected SK-N-MC cells; conditions: for inhibition at 0.2 µM: read-out: Cannabinoid CB1 Receptor Binding percent inhibition
T1 construct: expressed in transfected cells; host or cells: SK-N-MC cells, stably transfected with pcDNA3 CB-1 (human); semi-purified membrane pellet
T1 sequence (P21554 whole entry): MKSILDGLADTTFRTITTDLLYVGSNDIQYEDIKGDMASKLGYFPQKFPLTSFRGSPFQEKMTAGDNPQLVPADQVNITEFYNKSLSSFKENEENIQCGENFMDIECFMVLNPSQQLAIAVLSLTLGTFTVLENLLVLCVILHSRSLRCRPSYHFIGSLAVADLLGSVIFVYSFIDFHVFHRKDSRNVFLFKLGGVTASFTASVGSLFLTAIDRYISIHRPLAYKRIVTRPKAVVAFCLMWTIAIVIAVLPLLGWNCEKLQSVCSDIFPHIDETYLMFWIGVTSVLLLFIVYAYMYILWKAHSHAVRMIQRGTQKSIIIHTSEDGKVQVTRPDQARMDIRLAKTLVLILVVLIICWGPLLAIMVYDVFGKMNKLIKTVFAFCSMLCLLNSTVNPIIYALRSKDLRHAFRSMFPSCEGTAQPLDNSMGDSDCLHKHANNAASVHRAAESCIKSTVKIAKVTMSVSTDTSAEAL
Description: (§1) The human CB1 and CB2 receptors were stably expressed in SK-N-MC cells transfected with pcDNA3 CB-1 (human) or pcDNA3 CB-2 (human). The cells were grown in T-180 cell culture flasks under standard cell culture conditions at 37° C. in a 5% CO2 atmosphere. The cells were harvested by trysinization and homogenized in a homogenization buffer (10 mM Tris, 0.2 mM MgCl2, 5 mM KCl, with protease inhibitors aprotinin, leupeptin, pepstatin A and bacitracin) and centrifuged (2000 g). The supernatant was then centrifuged in 2M sucrose (31,300 g) to produce a semi-purified membrane pellet. The pellet was resuspended in homogenization and stored at −80° C.
(§2) On the day of the assay, the pellet was thawed on ice and diluted in assay buffer (50 mM Tris-HCl, 5 mM MgCl2, 2.5 mM EDTA, 0.5 mg/mL fatty acid free bovine serum albumin, pH 7.5). […] The plate was covered and incubated for 90 minutes at 30° C. The contents were then aspirated onto a Packard Unifilter GF/C filter bottom plate prewet with 0.5% polyethyleneimine. The wells of the polypropylene plate were rinsed and aspirated seven times with a 0.9% saline-0.5% Tween 20 solution. The Unifilter plate was dried, a scintillation cocktail was added to each well and the counts representing binding were quantitated in a TopCount scintillation counter.
(§3) For compounds tested, an IC50 binding value was obtained from percent inhibition studies in which various test concentrations were used. The binding value was calculated by linear regression. An average value is shown for those compounds where two or more IC50 values were obtained.
(§4) An average value is shown for those compounds where two or more percent inhibition values were obtained.

[2] = biological target: T2, human CB2 receptor (Homo sapiens, UniProt P34972); assay: Binding assay for CB2 agonists or inverse agonists, [3H]-CP-55,940 displacement on membranes of transfected SK-N-MC cells
T2 construct: expressed in transfected cells; host or cells: SK-N-MC cells, stably transfected with pcDNA3 CB-2 (human); semi-purified membrane pellet
T2 sequence (P34972 whole entry): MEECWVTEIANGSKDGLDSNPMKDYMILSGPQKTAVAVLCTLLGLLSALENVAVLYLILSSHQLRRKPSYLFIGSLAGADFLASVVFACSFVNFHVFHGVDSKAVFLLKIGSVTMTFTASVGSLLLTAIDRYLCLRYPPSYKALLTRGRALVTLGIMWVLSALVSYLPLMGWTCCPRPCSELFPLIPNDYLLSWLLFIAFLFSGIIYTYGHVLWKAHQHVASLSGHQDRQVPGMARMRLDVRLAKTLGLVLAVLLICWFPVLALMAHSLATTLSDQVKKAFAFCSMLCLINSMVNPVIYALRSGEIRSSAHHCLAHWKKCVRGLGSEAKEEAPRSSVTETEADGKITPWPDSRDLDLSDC
Description: as §1, §2, §3, §4

[3] = read-out: Cannabinoid CB2 Receptor Binding percent inhibition

SMILES | IC50 [1] [nM] | inhibition at 0.2 µM [2, 3] [%] | other results
O=C(NN1CCCCCC1)C1CCCc2c1nn(-c1ccc(Cl)cc1Cl)c2-c1ccc(Cl)cc1 (stereo not drawn) [Cpd 34, 3-(4-chloro-phenyl)-2-(2,4-dichloro-phenyl)-4,5,6,7-tetrahydro-2H-indazole-7-carboxylic acid azepan-1-ylamide] | 35 | 0 | 
COc1ccc(-c2c3c(nn2-c2ccc(Cl)cc2Cl)C(C(=O)N[C@H](C)c2ccccc2)CCC3)cc1 (stereo partly drawn) [Cpd 23, 2-(2,4-dichloro-phenyl)-3-(4-methoxy-phenyl)-4,5,6,7-tetrahydro-2H-indazole-7-carboxylic acid [(1R)-1-phenyl-ethyl]-amide] | 8 | 28 | 
C[C@@H](NC(=O)[C@H]1CCCc2c1nn(-c1ccc(Cl)cc1Cl)c2-c1ccc(Br)s1)c1ccccc1 [Cpd 52, (7S)-3-(5-bromo-thiophen-2-yl)-2-(2,4-dichloro-phenyl)-4,5,6,7-tetrahydro-2H-indazole-7-carboxylic acid [(1R)-1-phenyl-ethyl]-amide] |  | 20 | inhibition at 0.2 µM [1]: 44%
O=C(NN1CCCCC1)C1CCCc2c1nn(-c1ccc(Cl)cc1Cl)c2-c1ccc(Cl)cc1 (stereo not drawn) [Cpd 33, 3-(4-chloro-phenyl)-2-(2,4-dichloro-phenyl)-4,5,6,7-tetrahydro-2H-indazole-7-carboxylic acid piperidin-1-ylamide] | 39 | 0 | 
COC[C@H]1CCCN1NC(=O)C1CCCc2c1nn(-c1ccc(Cl)cc1Cl)c2-c1ccc(OC)cc1 (stereo partly drawn) [Cpd 32, 2-(2,4-dichloro-phenyl)-3-(4-methoxy-phenyl)-4,5,6,7-tetrahydro-2H-indazole-7-carboxylic acid [(2R)-2-methoxymethyl-pyrrolidin-1-yl]-amide] |  | 6 | inhibition at 0.2 µM [1]: 46%
CC(NC(=O)C1CCCc2c1nn(Cc1ccccc1)c2-c1ccc(Cl)cc1)C1CCCCC1 (stereo not drawn) [Cpd 5, 2-benzyl-3-(4-chloro-phenyl)-4,5,6,7-tetrahydro-2H-indazole-7-carboxylic acid (1-cyclohexyl-ethyl)-amide] | 700 |  | IC50 [2]: 6100 nM
C[C@@H](NC(=O)C1CCCc2c1nn(-c1ccc(Cl)cc1Cl)c2-c1ccc(Cl)s1)C1CCCCC1 (stereo partly drawn) [Cpd 47, 3-(5-chloro-thiophen-2-yl)-2-(2,4-dichloro-phenyl)-4,5,6,7-tetrahydro-2H-indazole-7-carboxylic acid [(1R)-1-cyclohexyl-ethyl]-amide] | 4 | 5 | 
COc1ccc(-n2nc3c(c2-c2ccc(C)cc2)CCCC3C(=O)NC(C)C23CCC4CC(CC4C2)C3)cc1 (stereo not drawn) [Cpd 2, 2-(4-methoxy-phenyl)-3-p-tolyl-4,5,6,7-tetrahydro-2H-indazole-7-carboxylic acid [1-(octahydro-2,5-methano-inden-5-yl)-ethyl]-amide] | 2130 |  | IC50 [2]: 2600 nM
COc1ccc(-n2nc3c(c2-c2ccc(C)cc2)CCCC3C(=O)N[C@H]2C3(C)CCC(C3)C2(C)C)cc1 (stereo partly drawn) [Cpd 16, 2-(4-methoxy-phenyl)-3-p-tolyl-4,5,6,7-tetrahydro-2H-indazole-7-carboxylic acid [(2S)-1,3,3-trimethyl-bicyclo[2.2.1]hept-2-yl]-amide] |  |  | IC50 ([1]; radioligand CP-55,940 0.2 nM, average where two or more values, read-out: Cannabinoid CB1 Receptor Binding IC50): 180 nM; inhibition at 25 µM [2, 3]: 66%
COc1ccc(-c2c3c(nn2-c2ccc(Cl)cc2Cl)C(C(=O)NN2CCCCCC2)CCC3)cc1 (stereo not drawn) [Cpd 22, 2-(2,4-dichloro-phenyl)-3-(4-methoxy-phenyl)-4,5,6,7-tetrahydro-2H-indazole-7-carboxylic acid azepan-1-ylamide] |  | 22 | inhibition at 0.2 µM [1]: 59%
C[C@@H](NC(=O)[C@@H]1CCCc2c1nn(-c1ccc(Cl)cc1Cl)c2-c1ccc(Cl)s1)c1ccccc1 [Cpd 49, (7R)-3-(5-chloro-thiophen-2-yl)-2-(2,4-dichloro-phenyl)-4,5,6,7-tetrahydro-2H-indazole-7-carboxylic acid [(1R)-1-phenyl-ethyl]-amide] | 7 | 14 | 
COc1ccc(-c2c3c(nn2-c2ccc(Cl)cc2Cl)[C@H](C(=O)N[C@H](C)c2ccccc2)CCC3)cc1 [Cpd 24, (7R)-2-(2,4-dichloro-phenyl)-3-(4-methoxy-phenyl)-4,5,6,7-tetrahydro-2H-indazole-7-carboxylic acid [(1R)-1-phenyl-ethyl]-amide] |  | 28 | inhibition at 0.2 µM [1]: 58%
COc1ccc(-c2c3c(nn2-c2ccc(Cl)cc2Cl)[C@@H](C(=O)N[C@H](C)c2ccccc2)CCC3)cc1 [Cpd 25, (7S)-2-(2,4-dichloro-phenyl)-3-(4-methoxy-phenyl)-4,5,6,7-tetrahydro-2H-indazole-7-carboxylic acid [(1R)-1-phenyl-ethyl]-amide] | 4 | 35 | 
O=C(N[C@H](CO)c1ccccc1)[C@H]1CCCc2c1nn(-c1ccc(Cl)cc1Cl)c2-c1ccc(Br)s1 [Cpd 56, (7S)-3-(5-bromo-thiophen-2-yl)-2-(2,4-dichloro-phenyl)-4,5,6,7-tetrahydro-2H-indazole-7-carboxylic acid [(1S)-2-hydroxy-1-phenyl-ethyl]-amide] | 46 |  | IC50 [2]: 300 nM
Cc1ccc(-c2c3c(nn2Cc2ccccc2)C(C(=O)NC(C)C24CC5CC(CC(C5)C2)C4)CCC3)cc1 (stereo not drawn) [Cpd 7, 2-benzyl-3-p-tolyl-4,5,6,7-tetrahydro-2H-indazole-7-carboxylic acid (1-adamantan-1-yl-ethyl)-amide] | 370 |  | IC50 [2]: 800 nM
C[C@@H](NC(=O)[C@@H]1CCCc2c1nn(-c1ccc(Cl)cc1Cl)c2-c1ccc(F)cc1)c1ccccc1 [Cpd 38, (7R)-2-(2,4-dichloro-phenyl)-3-(4-fluoro-phenyl)-4,5,6,7-tetrahydro-2H-indazole-7-carboxylic acid [(1R)-1-phenyl-ethyl]-amide] | 2 | 14 | 
C[C@@H](NC(=O)[C@H]1CCCc2c1nn(-c1ccc(Cl)cc1Cl)c2-c1ccc(Cl)cc1)c1ccccc1 [Cpd 39, (7S)-3-(4-chloro-phenyl)-2-(2,4-dichloro-phenyl)-4,5,6,7-tetrahydro-2H-indazole-7-carboxylic acid [(1R)-1-phenyl-ethyl]-amide] | 22 | 1 | 
CCOC(=O)[C@H]1C2CCC(C2)[C@@H]1NC(=O)C1CCCc2c1nn(-c1ccc(OC)cc1)c2-c1ccc(C)cc1 (stereo partly drawn) [Cpd 3, (2S,3S)-3-{[2-(4-methoxy-phenyl)-3-p-tolyl-4,5,6,7-tetrahydro-2H-indazole-7-carbonyl]-amino}-bicyclo[2.2.1]heptane-2-carboxylic acid ethyl ester] | 60 |  | IC50 ([2]; radioligand CP-55,940 0.2 nM, average where two or more values, read-out: Cannabinoid CB2 Receptor Binding IC50): 370 nM
C[C@@H](NC(=O)[C@@H]1CCCc2c1nn(-c1ccc(Cl)cc1Cl)c2-c1ccc(Cl)cc1)c1ccccc1 [Cpd 40, (7R)-3-(4-chloro-phenyl)-2-(2,4-dichloro-phenyl)-4,5,6,7-tetrahydro-2H-indazole-7-carboxylic acid [(1R)-1-phenyl-ethyl]-amide] | 0.6 | 11 | 
O=C(NN1CCCCC1)C1CCCc2c1nn(-c1ccc(Cl)cc1Cl)c2-c1ccc(Br)cc1 (stereo not drawn) [Cpd 41, 3-(4-bromo-phenyl)-2-(2,4-dichloro-phenyl)-4,5,6,7-tetrahydro-2H-indazole-7-carboxylic acid piperidin-1-ylamide] | 40 | 26 | 
O=C(NN1CCCCC1)[C@@H]1CCCc2c1nn(-c1ccc(Cl)cc1Cl)c2-c1ccc(Br)cc1 [Cpd 51, (7R)-3-(4-bromo-phenyl)-2-(2,4-dichloro-phenyl)-4,5,6,7-tetrahydro-2H-indazole-7-carboxylic acid piperidin-1-ylamide] | 14 | 27 | 
